Consider 2 compounds from paper PMC11624193, “Coupling cellular drug-target engagement to downstream pharmacology with CeTEAM” (Nature Communications, 2024).

Substitutions are numbered along the chain they refer to.

Experiment [1] has as its target T1, NUDT15 (Homo sapiens, UniProt Q9NV35).
T1 construct: full-length wild-type
T1 sequence (Q9NV35 1-164): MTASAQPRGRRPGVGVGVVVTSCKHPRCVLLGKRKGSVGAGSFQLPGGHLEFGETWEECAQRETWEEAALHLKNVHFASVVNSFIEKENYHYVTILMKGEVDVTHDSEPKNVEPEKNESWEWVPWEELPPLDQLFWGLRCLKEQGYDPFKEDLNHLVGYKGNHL
The experiment in a line: […] Å co-crystal structure; also enzyme-coupled malachite green inhibition assay and DSF. Type of experiment: biochemical.

For experiment [2], the target named is T2, NUDT15 (Homo sapiens, UniProt Q9NV35, R139C).
T2 construct: full-length R139C
T2 sequence (Q9NV35 1-164 R139C): T1 sequence (Q9NV35 1-164) with R139C
Nature of the experiment: DSF thermal shift of purified protein with […] compound; HA-R139C stabilization in cells. The class given is binding. Particulars: read-out: DSF thermal shift of purified protein with 50 μM compound; HA-R139C stabilizatio.

The target in experiment [3] is T1, NUDT15. Nature of the experiment: enzyme-coupled malachite green assay with dGTP as substrate. Type of experiment: biochemical.

One may read the IC50 as the concentration that gives 50% inhibition. Higher therefore signals a need for much substance. As to `Nc1nc(S)c2ncn(C3CCCCC3)c2n1` [NSC56456, 2-amino-9-cyclohexyl-3H-purine-6-thione], at NUDT15 [1], inhibition was half-maximal at 383 nM (IC50). Besides, the ΔTm at 50 µM on NUDT15 [2] was 7 °C.

`CC(C)(c1ccccc1)n1cnc2c(=S)nc(N)[nH]c21` [TH8234, 2-amino-9-(2-phenylpropan-2-yl)-3H-purine-6(9H)-thione] displayed an IC50 on NUDT15 [3] of 375 nM.
